Test results: patent publication US9253983B2, “Triazole compound and use thereof” (KUREHA CORPORATION, priority 2011, dated 2016)

Experiments:
[1] = test system: Septoria tritici; assay: Test 2 for antifungal effect, plate medium: S.t; assay type: cell-based; details: PDA plate medium
Method: (§1) Compound (1-1b) or Compound (1-2b) was dissolved in dimethyl sulfoxide, and the resulting solution was added to a PDA medium (potato dextrose-agar medium) at about 60° C. The medium and the solution were mixed thoroughly in a conical flask, poured into a petri dish, and allowed to solidify. In this way, a plate medium containing Compound (1-1b) or Compound (1-2b) at a certain concentration was prepared.
(§2) Meanwhile, test microorganisms cultured on a plate medium in advance were cut out with the use of a cork borer 4 mm in diameter, and were inoculated onto the compound-containing plate medium. After the inoculation, the pathogens were cultured at their optimum growth temperatures (for example, refer to LIST OF CULTURES 1996 microorganisms 10th edition, Institute for Fermentation (foundation)) for 1 day to 7 days, and their growth was determined by measuring the diameter of their flora. The extent of growth of the pathogens on the compound-containing plate medium was compared with that of pathogens on a plate medium where no compound was added, and mycelial growth inhibition rate was calculated as in Experiment Example 10. Note that, in Experiment Example 11, controls used in the antifungal effect tests are Compound (1-1a) and Compound (1-2a) instead of Compound (1-1b) and Compound (1-2b), respectively.
(§3) The results were rated on a 1-to-5 scale as in Experiment Example 10.

[2] = test system: Penicillium italicum; assay: Test 2 for antifungal effect, plate medium: P.i; assay type: cell-based; details: PDA plate medium
Method: as §1, §2, §3

[3] = test system: Puccinia recondita; assay: Efficacy of seed treatment on wheat brown rust; assay type: in vivo; details: wheat seed treatment 20 g ai/100 kg seeds, 12 days after inoculation
Method: A pot experiment was performed to evaluate the efficacy of seed treatment in controlling wheat leaf rust. Compound (1-1a) and Compound (1-2a), each of which was dissolved in DMSO to make up such a concentration that the seeds would be treated in treatment amount of 20 g ai/100 kg seeds, were each applied to wheat seeds in a vial, and thereafter 8 wheat seeds were sowed on an 80-cm^2 pot. The pot was kept in a greenhouse with water supplied to its bottom. 21 days after the sowing, the wheat seeds were inoculated with Puccinia recondita, and kept in a wet box for 2 days. After that, the pot was again kept in the greenhouse with water supplied to its bottom. 12 days after the inoculation, the percentage of affected area was found, and the protective value was calculated by the following equation. Protective value (%)=(1−(Percentage of affected area in treated region/Percentage of affected area in untreated region))×100

[4] = test system: Gibberella fujikuroi; assay: Test 1 for antifungal effect, plate medium: G.f; assay type: cell-based; details: PDA plate medium
Method: (§4) Compound (1-1a) or Compound (1-2a) was dissolved in dimethyl sulfoxide, and the resulting solution was added to a PDA medium (potato dextrose-agar medium) at about 60° C. The medium and the solution were mixed thoroughly in a conical flask, poured into a petri dish, and allowed to solidify. In this way, a plate medium containing Compound (1-1a) or Compound (1-2a) at a certain concentration was prepared.
(§5) Meanwhile, test microorganisms cultured on a plate medium in advance were cut out with the use of a cork borer 4 mm in diameter, and were inoculated onto the compound-containing plate medium. After the inoculation, the microorganisms were cultured at their optimum growth temperatures (for example, refer to LIST OF CULTURES 1996 microorganisms 10th edition, Institute for Fermentation (foundation)) for 1 day to 7 days, and their growth was determined by measuring the diameter of their flora. The extent of growth of the microorganisms on the compound-containing plate medium was compared with that of microorganisms on a plate medium where no compound was added, and mycelial growth inhibition rate was calculated by the following equation: R=100(dc−dt)/dc where R is mycelial growth inhibition rate (%), dc is the flora diameter in untreated plate, and dt is the flora diameter in plate treated with the compound.
(§6) A larger antifungal index indicates a better antifungal effect.

[5] = test system: Microdochium nivale; assay: Test 1 for antifungal effect, plate medium: M.n; assay type: cell-based; details: PDA plate medium
Method: as §4, §5, §6

[6] = test system: Phaeosphaeria nodorum; assay: Test 1 for antifungal effect, plate medium: P.n; assay type: cell-based; details: PDA plate medium
Method: as §4, §5, §6

[7] = test system: Rhizopus oryzae; assay: Test 1 for antifungal effect, plate medium: R.o; assay type: cell-based; details: PDA plate medium
Method: as §4, §5, §6

[8] = test system: Gaeumannomyces graminis; assay: Test 1 for antifungal effect, plate medium: G.g; assay type: cell-based; details: PDA plate medium
Method: as §4, §5, §6

[9] = test system: Botrytis cinerea; assay: Test 1 for antifungal effect, plate medium: B.c; assay type: cell-based; details: PDA plate medium
Method: as §4, §5, §6

[10] = test system: Botrytis cinerea; assay: Controlling effect on cucumber gray mold by foliage spray treatment (Tests 1 and 2); assay type: in vivo; details: foliage spray 12.5 mg/L, 1,000 L/ha, four days after inoculation
Method: The cucumber plants had been grown in square plastic pots (6 cm×6 cm). After the suspension was then left to dry, paper discs (8 mm in diameter) impregnated with a spore suspension of Botrytis cinerea w ere placed on the leaves, and the plants were kept at 20° C. in a high humidity environment. Four days after inoculation, the lesion degree of the cucumber gray mold was examined in accordance with the criteria shown in Table 1, and the protective values were calculated by the following equation: Protective value (%)=(1−Average lesion degree in sprayed plot/Average lesion degree in unsprayed plot)×100.
The cucumber plants had been grown in square plastic pots (6 cm×6 cm). After the leaves were air-dried, paper discs (8 mm in diameter) impregnated with a spore suspension of cucumber graymold-causing microorganisms were placed on the leaves, and the plants were kept at 20° C. in a high humidity environment. 4 days after the inoculation, the lesion degree of the cucumber gray mold was examined, and the protective values were calculated as were in Experiment Example 1.

Q: Which results are given for `CC1(CCl)CCC(Cc2ccc(Cl)cc2)C1(O)Cn1cncn1` (single isomer, unassigned) [Compound (1-1b), (1,2-cis, 1,5-cis)-5-(4-chlorobenzyl)-2-chloromethyl-2-methyl-1-(1H-1,2,4-triazole-1-ylmethyl)cyclopentanol]?
A: Antifungal index (mycelial growth inhibition rate) ([1]; 0.04 mg/L): 1 (Less than 60%); Antifungal index (mycelial growth inhibition rate) ([1]; 0.08 mg/L): 1 (Less than 60%); Antifungal index (mycelial growth inhibition rate) ([1]; 0.16 mg/L): 1 (Less than 60%); Antifungal index (mycelial growth inhibition rate) ([1]; 0.31 mg/L): 3 (Less than 80% but not less than 70%); Antifungal index (mycelial growth inhibition rate) ([1]; 0.63 mg/L): 5 (90% or greater); Antifungal index (mycelial growth inhibition rate) ([1]; 1.25 mg/L): 5 (90% or greater); Antifungal index (mycelial growth inhibition rate) ([2]; 0.04 mg/L): 3 (Less than 80% but not less than 70%); Antifungal index (mycelial growth inhibition rate) ([2]; 0.08 mg/L): 4 (Less than 90% but not less than 80%); Antifungal index (mycelial growth inhibition rate) ([2]; 0.16 mg/L): 5 (90% or greater); Antifungal index (mycelial growth inhibition rate) ([2]; 0.31 mg/L): 5 (90% or greater); Antifungal index (mycelial growth inhibition rate) ([2]; 0.63 mg/L): 5 (90% or greater); Antifungal index (mycelial growth inhibition rate) ([2]; 1.25 mg/L): 5 (90% or greater); Protective value (%) [3]: 63%; Antifungal index (mycelial growth inhibition rate) ([4]; 0.16 mg/L): 3 (Less than 80% but not less than 70%); Antifungal index (mycelial growth inhibition rate) ([4]; 0.31 mg/L): 4 (Less than 90% but not less than 80%); Antifungal index (mycelial growth inhibition rate) ([4]; 0.63 mg/L): 5 (90% or greater); Antifungal index (mycelial growth inhibition rate) ([4]; 1.25 mg/L): 5 (90% or greater); Antifungal index (mycelial growth inhibition rate) ([4]; 2.50 mg/L): 5 (90% or greater); Antifungal index (mycelial growth inhibition rate) ([5]; 0.16 mg/L): 1 (Less than 60%); Antifungal index (mycelial growth inhibition rate) ([5]; 0.31 mg/L): 1 (Less than 60%); Antifungal index (mycelial growth inhibition rate) ([5]; 0.63 mg/L): 1 (Less than 60%); Antifungal index (mycelial growth inhibition rate) ([5]; 1.25 mg/L): 2 (Less than 70% but not less than 60%); Antifungal index (mycelial growth inhibition rate) ([5]; 2.50 mg/L): 3 (Less than 80% but not less than 70%); Antifungal index (mycelial growth inhibition rate) ([6]; 0.16 mg/L): 2 (Less than 70% but not less than 60%); Antifungal index (mycelial growth inhibition rate) ([6]; 0.31 mg/L): 2 (Less than 70% but not less than 60%); Antifungal index (mycelial growth inhibition rate) ([6]; 0.63 mg/L): 2 (Less than 70% but not less than 60%); Antifungal index (mycelial growth inhibition rate) ([6]; 1.25 mg/L): 3 (Less than 80% but not less than 70%); Antifungal index (mycelial growth inhibition rate) ([6]; 2.50 mg/L): 5 (90% or greater); Antifungal index (mycelial growth inhibition rate) ([7]; 0.16 mg/L): 1 (Less than 60%); Antifungal index (mycelial growth inhibition rate) ([7]; 0.31 mg/L): 1 (Less than 60%); Antifungal index (mycelial growth inhibition rate) ([7]; 0.63 mg/L): 1 (Less than 60%); Antifungal index (mycelial growth inhibition rate) ([7]; 1.25 mg/L): 1 (Less than 60%); Antifungal index (mycelial growth inhibition rate) ([7]; 2.50 mg/L): 4 (Less than 90% but not less than 80%); Antifungal index (mycelial growth inhibition rate) ([8]; 0.16 mg/L): 1 (Less than 60%); Antifungal index (mycelial growth inhibition rate) ([8]; 0.31 mg/L): 1 (Less than 60%); Antifungal index (mycelial growth inhibition rate) ([8]; 0.63 mg/L): 2 (Less than 70% but not less than 60%); Antifungal index (mycelial growth inhibition rate) ([8]; 1.25 mg/L): 5 (90% or greater); Antifungal index (mycelial growth inhibition rate) ([8]; 2.50 mg/L): 5 (90% or greater); Antifungal index (mycelial growth inhibition rate) ([9]; 0.16 mg/L): 1 (Less than 60%); Antifungal index (mycelial growth inhibition rate) ([9]; 0.31 mg/L): 1 (Less than 60%); Antifungal index (mycelial growth inhibition rate) ([9]; 0.63 mg/L): 3 (Less than 80% but not less than 70%); Antifungal index (mycelial growth inhibition rate) ([9]; 1.25 mg/L): 4 (Less than 90% but not less than 80%); Antifungal index (mycelial growth inhibition rate) ([9]; 2.50 mg/L): 5 (90% or greater); Protective value (%) [10]: 45%
